Experiments:
[1] = Water diuresis action in conscious rats (oral administration); type: in vivo, male Wister rats; settings: 3 mg/kg oral
Description: Each compound to be tested was suspended in 0.5% methylcellulose solution and orally administered in a dose of 3 mg/kg to male Wister rats (body weight, 270 to 300 g) which have been subjected to fasting with no water for 16 to 20 hours. Using a metabolic cage, urine samples were collected just after the administration of each test sample until 4 hours thereafter to measure the amount of urine.

[2] = system: V1; experiment: V1 antagonism in conscious rats (oral administration), AVP-induced diastolic blood pressure increase; type: in vivo, male Wister rats; settings: 1 mg/kg oral, 30 minutes to 6 hours after administration, AVP 30 mU/kg i.v.
[3] = target: arginine vasopressin V2 receptor (Oryctolagus cuniculus, UniProt G1TA00); experiment: V2 receptor binding assay ([3H]-Arg-vasopressin, rabbit renal medulla membrane); settings: for antagonism on V2 receptor (in words): compared with OPC-31260 and OPC-21268; for Binding activity on arginine vasopressin V2 receptor (pKi): rabbit renal medulla membrane, [3H]-Arg-vasopressin 2 nM
[4] = target: T1, arginine vasopressin V1 receptor (Rattus norvegicus, UniProt P30560); experiment: V1 receptor binding assay ([3H]-Arg-vasopressin, rat liver membrane); settings: for antagonism on V1 receptor (in words): compared with OPC-31260 and OPC-21268; for Ki: rat liver membrane, [3H]-Arg-vasopressin 2 nM, 30° C., 30 minutes, pH 8.0, read-out: Binding activity on arginine vasopressin V1 receptor (pKi) (converted)
T1 construct: A rat liver membrane sample was prepared; from tissue; host or cells: rat liver membranes
Description: (1) V1 receptor binding assay
A rat liver membrane sample was prepared in accordance with the method of Nakamura et al. (J. Biol. Chem., 258, 9283 (1983)), and [^3 H]-Arg-vasopressin (2 nM, specific activity=75.8 Ci/mmol), 70 μg of the membrane sample and each drug to be tested (10^-8 to 10^-4 M) were incubated at 30° C. for 30 minutes in 250 μl of 100 mM Tris-HCl buffer (pH=8.0) containing 5 mM of magnesium chloride, 1 mM of ethylenediaminetetraacetic acid (EDTA) and 0.1% of bovine serum albumin (BSA). Thereafter, the incubation solution was sucked off using a cell harvester and free ligand and excess buffer were removed by passing the reaction mixture through a glass filter (GF/B), thereby trapping receptor-bound labeled ligand on the glass filter. The glass filter was taken out, thoroughly dried and then mixed with a liquid scintillation cocktail, and the amount of the membrane-bound [^3 H]-vasopressin was measured using a liquid scintillation counter to calculate the inhibition ratio by the following formula. [formula] C1 : amount of [^3 H]-vasopressin bound to the membrane in the coexistence of known amount of each drug to be tested and [^3 H]-vasopressin
C0 : amount of [^3 H]-vasopressin bound to the membrane when the drug to be tested was not added
B1 : amount of [^3 H]-vasopressin bound to the membrane in the presence of excess vasopressin (10^-6 M)
[formula] [L]: concentration of radioactive ligand KD: dissociation constant calculated from Scatchard plot
Negative logarithm of the thus calculated Ki value was used as pKi value.

T1 sequence (P30560 whole entry): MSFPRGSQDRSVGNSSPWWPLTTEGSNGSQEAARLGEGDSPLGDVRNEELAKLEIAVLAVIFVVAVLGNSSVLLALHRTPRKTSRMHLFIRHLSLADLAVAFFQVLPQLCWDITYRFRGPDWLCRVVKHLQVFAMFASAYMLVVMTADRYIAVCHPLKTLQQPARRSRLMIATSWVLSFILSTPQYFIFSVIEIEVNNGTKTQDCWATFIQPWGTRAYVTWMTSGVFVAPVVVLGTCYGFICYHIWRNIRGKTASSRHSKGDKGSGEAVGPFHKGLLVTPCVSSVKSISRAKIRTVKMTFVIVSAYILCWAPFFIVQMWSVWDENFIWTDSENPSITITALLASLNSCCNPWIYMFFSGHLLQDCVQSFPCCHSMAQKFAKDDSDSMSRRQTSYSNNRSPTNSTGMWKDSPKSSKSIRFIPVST
Chain of arginine vasopressin V2 receptor (G1TA00 78-446): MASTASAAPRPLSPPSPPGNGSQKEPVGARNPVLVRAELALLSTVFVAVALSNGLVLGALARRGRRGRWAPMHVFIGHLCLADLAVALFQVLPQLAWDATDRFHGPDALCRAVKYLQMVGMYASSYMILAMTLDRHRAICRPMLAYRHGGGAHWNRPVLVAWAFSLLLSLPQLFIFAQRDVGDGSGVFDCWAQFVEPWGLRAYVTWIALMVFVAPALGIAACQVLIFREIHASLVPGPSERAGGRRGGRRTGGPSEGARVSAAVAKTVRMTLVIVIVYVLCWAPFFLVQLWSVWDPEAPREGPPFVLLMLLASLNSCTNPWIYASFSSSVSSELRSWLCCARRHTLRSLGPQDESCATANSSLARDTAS

Row | SMILES | amount of urine compared with solvent-administered group, 2 to 4 hours (in words) ([1]; 2 hours to 4 hours after administration) | amount of urine relative to solvent-administered group, 0 to 2 hours ([1]; just after administration to 2 hours later) [times] | Pressure increment by AVP (before compound = 100%) [2] [%] | antagonism on V2 receptor (in words) [3] | Binding activity on arginine vasopressin V2 receptor (pKi) [3] | antagonism on V1 receptor (in words) [4] | Ki [4] [pM]
1 | Cc1ccccc1C(=O)Nc1ccc(C(=O)N2CCCC(N(C)C)c3ccccc32)cc1 (stereo not drawn) [Comparative compound (1), OPC-31260] | almost the same as that in the solvent-administered group | 11 |  |  |  |  | 
2 | CN1CCCN(C(=O)/C=C2/c3ccccc3N(C(=O)c3ccc(NC(=O)c4ccccc4-c4ccccc4)cc3)CCC2(F)F)CC1.Cl [Example 24, (Z)-4'-[[4,4-difluoro-5-[[(4-methylhexahydro-1,4-diazepin-1-yl)carbonyl]methylene]-2,3,4,5-tetrahydro-1H-1-benzazepin-1-yl]carbonyl]-2-phenylbenzanilide hydrochloride] |  |  | ≤ 50 | excellent antagonisms on both V1 and V2 receptors | 9.26 | excellent antagonisms on both V1 and V2 receptors | 31.6
3 | CN1CCN(C(=O)/C=C2/c3ccccc3N(C(=O)c3ccc(NC(=O)c4ccccc4-c4ccccc4)cc3)CCC2(F)F)CC1.Cl [Example 11, (Z)-4'-[[4,4-difluoro-5-(4-methyl-1-piperazinyl)carbonylmethylene-2,3,4,5-tetrahydro-1H-1-benzazepin-1-yl]carbonyl]-2-phenylbenzanilide hydrochloride] |  |  | ≤ 50 | excellent antagonisms on both V1 and V2 receptors | 9.06 | excellent antagonisms on both V1 and V2 receptors | 1290

Source: patent US5710150A, “Benzazepine derivative, pharmaceutical composition thereof, and intermediate thereof” (Yamanouchi Pharmaceutical Co., Ltd., priority 1993, dated 1998)
